Reference: ChEMBL document CHEMBL1143292, “A small molecule inhibitor selective for a variant ATP-binding site of the chaperonin GroEL” (Bioorg Med Chem Lett, 2009)
The source made the active and inactive calls.

Columns and labels:
[1] = tested on: Chaperonin GroEL (Escherichia coli (strain K12)), P0A6F5 [I493C]; assay: Inhibition of Escherichia coli 60 kDa chaperonin groEL I493C mutant
Escherichia coli [2] = assay: Inhibition of Escherichia coli 60 kDa chaperonin groEL ATPase activity assessed as inorganic phosphate release at 50 uM by Malachite green complex formation assay
[3] = tested on: Chaperonin GroEL (Escherichia coli (strain K12)), P0A6F5 [I493C]; assay: Inhibition of Escherichia coli 60 kDa chaperonin groEL I493C mutant ATPase activity assessed as inorganic phosphate release at 50 uM by Malachite green complex formation assay
[4] = tested on: Chaperonin GroEL (Escherichia coli (strain K12)), P0A6F5 [I493C]; assay: (§1) Inhibition of Escherichia coli 60 kDa chaperonin groEL refolding activity assessed as recovered enzyme activity of bovine rhodanese at 50 uM
Escherichia coli [5] = assay: as §1
[6] = tested on: Chaperonin GroEL (Escherichia coli (strain K12)), P0A6F5 [I493C]; assay: (§2) Inhibition of Escherichia coli 60 kDa chaperonin groEL refolding activity assessed as recovered enzyme activity of pig heart malate dehydrogenase at 50 uM
Escherichia coli [7] = assay: as §2

Measured: Activity

Chain of Chaperonin GroEL (Escherichia coli (strain K12)), P0A6F5 [I493C] (P0A6F5 whole entry I493C): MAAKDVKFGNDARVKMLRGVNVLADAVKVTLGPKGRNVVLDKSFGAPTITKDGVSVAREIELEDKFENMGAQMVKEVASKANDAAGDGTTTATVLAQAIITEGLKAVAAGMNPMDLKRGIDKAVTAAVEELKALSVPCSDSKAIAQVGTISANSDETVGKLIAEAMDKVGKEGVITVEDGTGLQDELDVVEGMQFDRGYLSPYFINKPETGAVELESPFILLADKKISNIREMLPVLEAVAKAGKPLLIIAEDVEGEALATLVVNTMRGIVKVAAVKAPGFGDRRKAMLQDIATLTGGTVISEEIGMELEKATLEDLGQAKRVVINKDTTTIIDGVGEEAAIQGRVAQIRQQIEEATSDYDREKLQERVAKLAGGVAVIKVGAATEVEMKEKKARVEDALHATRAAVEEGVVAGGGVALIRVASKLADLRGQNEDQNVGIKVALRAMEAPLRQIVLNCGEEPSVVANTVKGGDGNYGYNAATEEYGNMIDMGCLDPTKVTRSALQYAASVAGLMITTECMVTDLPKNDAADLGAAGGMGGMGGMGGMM

CC(C)(C)n1nc(-c2ccc(NC(=O)C3CCCC3)cc2)c2c(N)ncnc21
active: all assays above
